# According to US8003660B2, “Modulators of muscarinic receptors” (Vertex Pharmaceuticals Incorporated, priority 2006, dated 2011):
# Read-outs that look alike come from different tables or passages of the source.
# Tests used:
# Format in all cases: cell-based
# M3 muscarinic receptor = target: T1, M3 muscarinic receptor (Homo sapiens, UniProt P20309); test: Functional mobilization of intracellular calcium (FLIPR) in CHO cells expressing M3; settings: for EC50: CHO cells expressing M3, FLIPR calcium; for Emax: CHO; for M3 Activity: CHO cells expressing M3, FLIPR calcium assay
# T1 construct: expressed in transfected cells; host or cells: CHO (M3-CHO)
# T1 sequence (P20309 whole entry): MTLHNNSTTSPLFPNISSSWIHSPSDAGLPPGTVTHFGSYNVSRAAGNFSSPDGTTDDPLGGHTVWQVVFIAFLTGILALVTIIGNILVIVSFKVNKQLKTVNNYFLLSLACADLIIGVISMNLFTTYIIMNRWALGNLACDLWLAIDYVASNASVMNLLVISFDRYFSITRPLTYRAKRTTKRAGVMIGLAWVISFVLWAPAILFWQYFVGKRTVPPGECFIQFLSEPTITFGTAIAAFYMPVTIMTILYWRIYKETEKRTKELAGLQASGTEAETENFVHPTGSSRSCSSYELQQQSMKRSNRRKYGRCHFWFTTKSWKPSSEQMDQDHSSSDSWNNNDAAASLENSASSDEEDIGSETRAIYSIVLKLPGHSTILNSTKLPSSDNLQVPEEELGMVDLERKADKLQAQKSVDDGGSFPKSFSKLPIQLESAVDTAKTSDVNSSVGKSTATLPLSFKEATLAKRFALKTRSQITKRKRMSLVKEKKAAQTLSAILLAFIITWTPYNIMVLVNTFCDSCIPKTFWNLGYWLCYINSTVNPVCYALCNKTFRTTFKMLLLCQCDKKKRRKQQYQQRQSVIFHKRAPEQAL
# How it was run: (§1)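 Recombinant CHO cells loaded with Fluo-3 AM or Calcium 3 dye in pH 7.4 buffer containing 1 mM probenecid, with 0.5% final DMSO. For agonism, compound is added directly. For inhibition, it is preincubated 15 min, or co-applied, before carbachol at EC80. FLIPR fluorescence (ex 488, em 540 nm) is recorded for 60 s.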
# M4 muscarinic receptor = target: T2, M4 muscarinic receptor (Homo sapiens, UniProt P08173); test: Functional mobilization of intracellular calcium (FLIPR) in CHO cells expressing M4; settings: for EC50: CHO cells expressing M4, FLIPR calcium; for Emax: CHO; for M4 Activity: CHO cells expressing M4, FLIPR calcium assay
# T2 construct: expressed in transfected cells; host or cells: CHO (M4-CHO)
# T2 sequence (P08173 1-479): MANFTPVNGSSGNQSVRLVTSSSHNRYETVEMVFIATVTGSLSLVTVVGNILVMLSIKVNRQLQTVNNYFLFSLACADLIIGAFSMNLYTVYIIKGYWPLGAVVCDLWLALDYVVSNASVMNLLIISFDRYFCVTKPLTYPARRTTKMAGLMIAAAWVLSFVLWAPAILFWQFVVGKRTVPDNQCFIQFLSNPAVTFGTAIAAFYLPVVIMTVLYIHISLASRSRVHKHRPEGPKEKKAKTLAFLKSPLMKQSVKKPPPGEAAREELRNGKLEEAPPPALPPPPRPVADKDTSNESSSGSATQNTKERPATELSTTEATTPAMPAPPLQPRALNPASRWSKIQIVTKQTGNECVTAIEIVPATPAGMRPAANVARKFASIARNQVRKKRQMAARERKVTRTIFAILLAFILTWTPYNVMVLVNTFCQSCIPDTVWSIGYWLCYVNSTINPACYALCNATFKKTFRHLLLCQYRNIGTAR
# How it was run: as §1
# M2 muscarinic receptor = target: T3, M2 muscarinic receptor (Homo sapiens, UniProt P08172); test: Functional mobilization of intracellular calcium (FLIPR) in CHO cells expressing M2; settings: for EC50: CHO cells expressing M2, FLIPR calcium; for Emax: CHO; for M2 Activity: CHO cells expressing M2, FLIPR calcium assay
# T3 construct: expressed in transfected cells; host or cells: CHO (M2-CHO)
# T3 sequence (P08172 1-466): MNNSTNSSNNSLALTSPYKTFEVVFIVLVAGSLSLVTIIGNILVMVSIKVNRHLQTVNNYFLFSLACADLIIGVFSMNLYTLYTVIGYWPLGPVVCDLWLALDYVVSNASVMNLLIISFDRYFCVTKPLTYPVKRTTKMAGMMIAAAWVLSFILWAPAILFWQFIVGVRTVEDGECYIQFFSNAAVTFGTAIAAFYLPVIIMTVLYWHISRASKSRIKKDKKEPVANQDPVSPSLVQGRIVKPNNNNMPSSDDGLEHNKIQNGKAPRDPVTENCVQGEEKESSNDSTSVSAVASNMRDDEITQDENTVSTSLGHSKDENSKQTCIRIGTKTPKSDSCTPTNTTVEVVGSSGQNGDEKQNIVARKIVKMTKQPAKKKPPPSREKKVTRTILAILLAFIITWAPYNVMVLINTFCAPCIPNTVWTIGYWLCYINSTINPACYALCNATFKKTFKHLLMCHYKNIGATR
# How it was run: as §1
# M1 muscarinic receptor = target: T4, M1 muscarinic receptor (Homo sapiens, UniProt P11229); test: Functional mobilization of intracellular calcium (FLIPR) in CHO cells expressing M1; settings: for EC50: CHO cells expressing M1, FLIPR calcium; for Emax: CHO; for M1 Activity: CHO cells expressing M1, FLIPR calcium assay
# T4 construct: expressed in transfected cells; host or cells: CHO (M1-CHO)
# T4 sequence (P11229 1-460): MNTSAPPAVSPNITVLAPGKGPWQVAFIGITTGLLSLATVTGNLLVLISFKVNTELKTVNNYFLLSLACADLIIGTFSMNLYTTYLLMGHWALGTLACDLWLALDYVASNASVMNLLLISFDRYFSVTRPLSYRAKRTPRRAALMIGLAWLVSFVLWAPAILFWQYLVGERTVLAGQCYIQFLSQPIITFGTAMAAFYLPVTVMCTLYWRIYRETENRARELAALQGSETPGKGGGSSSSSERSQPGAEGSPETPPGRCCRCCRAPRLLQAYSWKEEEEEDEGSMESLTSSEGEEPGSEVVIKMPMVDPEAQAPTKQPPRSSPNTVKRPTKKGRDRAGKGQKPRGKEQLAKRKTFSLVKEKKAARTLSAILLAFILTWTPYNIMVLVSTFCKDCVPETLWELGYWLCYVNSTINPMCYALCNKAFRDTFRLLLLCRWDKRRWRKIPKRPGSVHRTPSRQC
# How it was run: as §1
# [1] = 100% = maximum response obtained with the Carbachol control, read-out: M3 Efficacy
# [2] = 100% = maximum response obtained with the Carbachol control, read-out: M4 Efficacy
# [3] = 100% = maximum response obtained with the Carbachol control, read-out: M2 Efficacy
# [4] = 100% = maximum response obtained with the Carbachol control, read-out: M1 Efficacy
# [5] = 100% efficacy = maximum response obtained with the Carbachol control
SMILES,EC50 (M3 muscarinic receptor) [µM],Emax (M3 muscarinic receptor; [1]) [%],EC50 (M4 muscarinic receptor) [µM],Emax (M4 muscarinic receptor; [2]) [%],EC50 (M2 muscarinic receptor) [µM],Emax (M2 muscarinic receptor; [3]) [%],EC50 (M1 muscarinic receptor) [µM],Emax (M1 muscarinic receptor; [4]) [%],M3 Activity (M3 muscarinic receptor),Emax (M3 muscarinic receptor; [5]) [%],M4 Activity (M4 muscarinic receptor),Emax (M4 muscarinic receptor; [5]) [%],M2 Activity (M2 muscarinic receptor),Emax (M2 muscarinic receptor; [5]) [%],M1 Activity (M1 muscarinic receptor),Emax (M1 muscarinic receptor; [5]) [%]
CC(=O)N(C)CCC(=O)N[C@H]1CCC2(CCN(CCC(C)(C)C)CC2)c2ccccc21 [compound 171],> 5,< 25,< 2,25 to 100,< 2,25 to 100,< 2,25 to 100,–,–,–,–,–,–,–,–
C=CCCCN1CCC2(CC[C@H](NC(C)=O)c3ccccc32)CC1 [compound 172],> 5,< 25,< 2,25 to 100,2 to 5,25 to 100,< 2,25 to 100,–,–,–,–,–,–,–,–
CC(C)(C)CCN1CCC2(CCC(=O)c3ccccc32)CC1 [compound 173],> 5,< 25,< 2,25 to 100,< 2,25 to 100,< 2,25 to 100,–,–,–,–,–,–,–,–
COC(=O)N(C)[C@H]1CCC2(CCN(CCC(C)(C)C)CC2)c2ccccc21 [compound 174],> 5,< 25,< 2,25 to 100,> 5,< 25,2 to 5,25 to 100,–,–,–,–,–,–,–,–
CN(C)C(=O)N[C@H]1CCC2(CCN(CCC(C)(C)C)CC2)c2ccccc21 [compound 175],> 5,< 25,< 2,25 to 100,> 5,< 25,> 5,< 25,–,–,–,–,–,–,–,–
CN(C(=O)C1CC1)[C@H]1CCC2(CCN(CCC(C)(C)C)CC2)c2ccccc21 [compound 176],> 5,< 25,< 2,25 to 100,> 5,< 25,2 to 5,< 25,–,–,–,–,–,–,–,–
CC(=O)N[C@H]1CCC2(CCN(CCC(C)(C)C)CC2)c2cc(F)ccc21 [compound 177],> 5,< 25,< 2,25 to 100,< 2,25 to 100,< 2,25 to 100,–,–,–,–,–,–,–,–
CN(C(=O)C1CCCC1)[C@H]1CCC2(CCN(CCC(C)(C)C)CC2)c2ccccc21 [compound 178],> 5,< 25,< 2,25 to 100,> 5,< 25,> 5,< 25,–,–,–,–,–,–,–,–
CC(=O)N[C@H]1CCC2(CCN(CCCCC(C)(C)C#N)CC2)c2ccccc21 [compound 179],> 5,< 25,> 5,< 25,> 5,< 25,< 2,25 to 100,–,–,–,–,–,–,–,–
Cn1cnc(C(=O)N[C@@H]2CCC3(CCN(CCC(C)(C)C)CC3)c3cc(F)ccc32)c1 [compound 180],> 5,< 25,< 2,25 to 100,< 2,25 to 100,< 2,25 to 100,–,–,–,–,–,–,–,–
CCN(C(=O)COC)[C@H]1CCC2(CCN(CCC(C)(C)C)CC2)c2ccccc21 [compound 181],> 5,< 25,< 2,25 to 100,> 5,< 25,2 to 5,25 to 100,–,–,–,–,–,–,–,–
CC(C)C[C@@H](C(=O)N[C@@H]1CCC2(CCN(CCC(C)(C)C)CC2)c2ccccc21)N1CCCC1=O [compound 182],> 5,< 25,< 2,25 to 100,> 5,< 25,2 to 5,25 to 100,–,–,–,–,–,–,–,–
CCN(C(=O)CC(F)(F)F)[C@H]1CCC2(CCN(CCC(C)(C)C)CC2)c2ccccc21 [compound 183],> 5,< 25,< 2,25 to 100,> 5,< 25,2 to 5,25 to 100,–,–,–,–,–,–,–,–
CC(=O)N(C)[C@H]1CCC2(CCN(CCC(C)C)CC2)c2ccccc21 [compound 184],> 5,< 25,< 2,25 to 100,> 5,< 25,< 2,25 to 100,–,–,–,–,–,–,–,–
CC(=O)N[C@H]1CCC2(CCN(CCCC(F)(F)F)CC2)c2ccccc21 [compound 185],–,–,–,–,–,–,–,–,+ (activity was measured to be greater than 5.0 μM),25 to 100,++ (activity was measured to be from 2.0 μM to 5.0 μM),25 to 100,+ (activity was measured to be greater than 5.0 μM),< 25,++ (activity was measured to be from 2.0 μM to 5.0 μM),25 to 100
CC(=O)N1CCCCC1C(=O)N[C@@H]1CCC2(CCN(CCC(C)(C)C)CC2)c2ccccc21 (some centres unmarked) [compound 186],–,–,–,–,–,–,–,–,+ (activity was measured to be greater than 5.0 μM),< 25,+++ (activity was measured to be less than 2.0 μM),25 to 100,+ (activity was measured to be greater than 5.0 μM),< 25,++ (activity was measured to be from 2.0 μM to 5.0 μM),25 to 100
